“And” between values parts separate entries of the source, which are not always exact repeats. Identical values can stand only once. Like-named read-outs stand apart in the source and are kept apart here.
Assays:
[1] = Radiochemical HPLC profiling of urine after [^14C]DMAE; type: in vivo, Harlan Sprague Dawley rats
[2] = as above; conditions: Oral
[3] = Formation of N,N-dimethylnitrosamine after oral DMAE; type: in vivo; conditions: rats, oral DMAE 10 to 500 mg/kg; limit of quantitation 5 pg/mL
[4] = for residual radioactivity remaining in tissues (excluding GI tract): male and female rats
[5] = female mice, gavage 160 mg/kg, 24 h
rodents = conditions: ref NTP 2002; cited from earlier work
[6] = female rats, IV 16 mg/kg, 24 h, DMAE dose 0
[7] = female rats, IV 16 mg/kg, 24 h, DMAE dose 0, listed as [^14C]choline, 16 mg/kg
[8] = female rats, gavage 160 mg/kg, 24 h, DMAE dose 0
[9] = female rats, gavage 160 mg/kg, 24 h, DMAE dose 0, listed as [^14C]choline, 160 mg/kg
[10] = female rats, gavage 160 mg/kg, 24 h, DMAE pre-treatment 100 mg/kg
[11] = female rats, gavage 160 mg/kg, 24 h, DMAE pre-treatment 500 mg/kg
[12] = male rats, IV 16 mg/kg, 24 h, DMAE dose 0
[13] = male rats, gavage 160 mg/kg, 24 h, DMAE dose 0
[14] = male rats, gavage 160 mg/kg, 24 h, DMAE pre-treatment 100 mg/kg, 1 h prior
[15] = male rats, gavage 160 mg/kg, 24 h, DMAE pre-treatment 500 mg/kg, 1 h prior
[16] = male rats, gavage 160 mg/kg, 24 h, three DMAE pre-treatments 100 mg/kg 48, 24 and 1 h prior
[17] = DMAE dose 0, listed as [^14C]choline, 160 mg/kg
[18] = DMAE pre-treatment 500 mg/kg, 1 h prior

In the case of C[N+](C)([O-])CCO [DMAE Oxide], the “Estimated percentage of area of DMAE Oxide peak in urine chromatogram” value (shortened to “Estimated percentage”) ([1]; Rat/Female, [^14C]DMAE 500 mg/kg, Oral) was 45%, the “Estimated percentage” value ([1]; Rat/Male, [^14C]DMAE 10 mg/kg, IV) was 97% and the “Estimated percentage” value ([1]; Rat/Male, [^14C]DMAE 10 mg/kg, Oral) was 5%. For the same molecule, the “Estimated percentage” value ([1]; Rat/Male, [^14C]DMAE 100 mg/kg, Oral) was 44%, the “Estimated percentage” value ([1]; Rat/Male, [^14C]DMAE 500 mg/kg, Oral) was 66% and the “Estimated percentage” value ([2]; Mouse/Female, [^14C]DMAE 10 mg/kg) was 92%. For the same molecule, the “Estimated percentage” value ([2]; Mouse/Female, [^14C]DMAE 100 mg/kg) was 18%, the “Estimated percentage” value ([2]; Mouse/Female, [^14C]DMAE 500 mg/kg) was 34% and the “Estimated percentage” value ([2]; Mouse/Male, [^14C]DMAE 500 mg/kg) was 0%. For the same molecule, the “Estimated percentage” value ([2]; Mouse/Male, [^14C]DMAE 500 mg/kg, listed as DMAE oxide) was “absent”.

With CN(C)N=O [N,N-dimethylnitrosamine] the “N,N-dimethylnitrosamine detection” value [3] was “not detected”.

With C[N+](C)(C)CCO [choline, N,N,N-trimethylaminoethanol] the “% Dose Recovered, CO2” value [4, 6] was 28.1 ± 2.90 % dose, the “% Dose Recovered, Tissues and GI Tract (includes contents)” value (from here on “% Dose Recovered, Tissues and GI Tract”) [4, 6] was 54.0 ± 5.50 % dose and the “% Dose Recovered, VOCs” value [4, 6] was 0.284 ± 0.038 % dose. The “% Dose Recovered, Total Recovered” value [4, 7] was 90.1 ± 6.10 % dose, the “% Dose Recovered, Urine” value [4, 7] was 7 % dose and 7.45 ± 2.58 % dose and the “% Dose Recovered, Tissues and GI Tract” value [4, 8] was 26.1 ± 3.80 % dose. The “% Dose Recovered, Total Recovered” value [4, 8] was 91.3 ± 9.60 % dose, the “% Dose Recovered, VOCs” value [4, 8] was 0.325 ± 0.025 % dose and the “% Dose Recovered, CO2” value [4, 9] was 18 % dose and 17.8 ± 1.70 % dose. For the same molecule, the “% Dose Recovered, Urine” value [4, 9] was 34 % dose and 34.2 ± 7.90 % dose, the “% Dose Recovered, Tissues and GI Tract” value [4, 10] was 24.7 ± 2.70 % dose and the “% Dose Recovered, Total Recovered” value [4, 10] was 92.9 ± 4.80 % dose. For the same molecule, the “% Dose Recovered, VOCs” value [4, 10] was 0.268 ± 0.026 % dose, the “dose recovered in tissues (excluding GI tract)” value [4, 10] was 21% and the “% Dose Recovered, CO2” value [4, 11] was 22.4 ± 3.60 % dose. The “% Dose Recovered, Tissues and GI Tract” value [4, 11] was 25.9 ± 4.70 % dose, the “% Dose Recovered, Total Recovered” value [4, 11] was 94.1 ± 4.80 % dose and the “% Dose Recovered, Urine” value [4, 11] was 43.3 ± 5.60 % dose. For the same molecule, the “% Dose Recovered, VOCs” value [4, 11] was 0.227 ± 0.057 % dose, the “recovery in tissues other than the GI tract” value ([4]; female rats, gavage 160 mg/kg, 24 h, [^14C]choline alone) was ~ 21% and the total dose recovered ([4]; female rats, gavage 160 mg/kg, range over groups) was 91–94%. For the same molecule, the “residual radioactivity remaining in tissues (excluding GI tract)” value ([4]; IV 16 mg/kg, 24 h) was 48–49%, the “residual radioactivity remaining in tissues (excluding GI tract)” value ([4]; oral gavage, 24 h) was 17–21% and the “% Dose Recovered, CO2” value [4, 12] was 17.4 ± 2.40 % dose. The “% Dose Recovered, Tissues and GI Tract” value [4, 12] was 56.2 ± 9.90 % dose, the “% Dose Recovered, VOCs” value [4, 12] was 0.139 ± 0.035 % dose and the “% Dose Recovered, Urine” value ([4]; male rats, IV 16 mg/kg, 24 h, DMAE dose 0, listed as [^14C]choline, 16 mg/kg) was 4 % dose and 3.92 ± 0.850 % dose. The “% Dose Recovered, Tissues and GI Tract” value [4, 13] was 21.4 ± 2.80 % dose, the “% Dose Recovered, Total Recovered” value [4, 13] was 88.2 ± 5.50 % dose and the “% Dose Recovered, CO2” value ([4]; male rats, gavage 160 mg/kg, 24 h, DMAE dose 0, listed as [^14C]choline, 160 mg/kg) was 12.5 ± 2.20 % dose. For the same molecule, the “% Dose Recovered, CO2” value [4, 14] was 12.4 ± 1.70 % dose, the “% Dose Recovered, Tissues and GI Tract” value [4, 14] was 20.4 ± 5.60 % dose and the “% Dose Recovered, Urine” value [4, 14] was 31.9 ± 4.60 % dose. For the same molecule, the “% Dose Recovered, VOCs” value [4, 14] was 0.018 ± 0.003 % dose, the “% Dose Recovered, CO2” value [4, 15] was 15.1 ± 4.00 % dose and the “% Dose Recovered, Tissues and GI Tract” value [4, 15] was 20.0 ± 3.80 % dose. The “% Dose Recovered, Urine” value [4, 15] was 40.7 ± 6.30 % dose, the “% Dose Recovered, VOCs” value [4, 15] was 0.065 ± 0.002 % dose and the “dose recovered in tissues (excluding GI tract)” value ([4]; male rats, gavage 160 mg/kg, 24 h, [^14C]choline alone) was ~ 18%. For the same molecule, the “dose recovered in feces” value ([4]; male rats, gavage 160 mg/kg, 24 h, pre-treatment with multiple doses of 100 mg/kg or a single dose of 500 mg/kg DMAE) was 10–12%, the “% Dose Recovered, CO2” value [4, 16] was 17.0 ± 1.70 % dose and the “% Dose Recovered, Tissues and GI Tract” value [4, 16] was 26.6 ± 5.30 % dose. For the same molecule, the “% Dose Recovered, Total Recovered” value [4, 16] was 93.7 ± 2.70 % dose, the “% Dose Recovered, Urine” value [4, 16] was 39.9 ± 3.80 % dose and the “% Dose Recovered, VOCs” value [4, 16] was “below the limit of detection”. For the same molecule, the “% Dose Recovered, Tissues and GI Tract” value ([5]; DMAE dose 0) was 18.2 ± 2.90 % dose, the “% Dose Recovered, CO2” value [5, 17] was 25 % dose and 24.5 ± 5.40 % dose and the “% Dose Recovered, Urine” value [5, 17] was 32 % dose and 31.8 ± 11.1 % dose. The “% Dose Recovered, VOCs” value [5, 17] was 4 % dose and 3.61 ± 3.75 % dose, the “% Dose Recovered, CO2” value [5, 18] was 26.4 ± 8.60 % dose and the “% Dose Recovered, Tissues and GI Tract” value [5, 18] was 18.4 ± 9.80 % dose. For the same molecule, the “% Dose Recovered, VOCs” value [5, 18] was 2.41 ± 1.77 % dose, the “% Dose Recovered, Urine” value ([5]; DMAE pre-treatment 500 mg/kg, 1 h prior, listed as [^14C]choline) was 32 % dose and 32.4 ± 7.20 % dose and the “recovery in tissues (excluding GI tract)” value ([5]; [^14C]choline alone) was 15%. The “oral LD50” value (rodents) was 3400 to 3900 mg/kg.

Reference: paper PMC7252906 (Toxicology and applied pharmacology, 2019)
